Assay type in all cases: cell-based
One assay concerns the target T1, human TLR7 (Homo sapiens, UniProt Q9NYK1).
T1 construct: host or cells: HEK-Blue cells (HEK293-derived reporter line)
T1 sequence (Q9NYK1 27-1049): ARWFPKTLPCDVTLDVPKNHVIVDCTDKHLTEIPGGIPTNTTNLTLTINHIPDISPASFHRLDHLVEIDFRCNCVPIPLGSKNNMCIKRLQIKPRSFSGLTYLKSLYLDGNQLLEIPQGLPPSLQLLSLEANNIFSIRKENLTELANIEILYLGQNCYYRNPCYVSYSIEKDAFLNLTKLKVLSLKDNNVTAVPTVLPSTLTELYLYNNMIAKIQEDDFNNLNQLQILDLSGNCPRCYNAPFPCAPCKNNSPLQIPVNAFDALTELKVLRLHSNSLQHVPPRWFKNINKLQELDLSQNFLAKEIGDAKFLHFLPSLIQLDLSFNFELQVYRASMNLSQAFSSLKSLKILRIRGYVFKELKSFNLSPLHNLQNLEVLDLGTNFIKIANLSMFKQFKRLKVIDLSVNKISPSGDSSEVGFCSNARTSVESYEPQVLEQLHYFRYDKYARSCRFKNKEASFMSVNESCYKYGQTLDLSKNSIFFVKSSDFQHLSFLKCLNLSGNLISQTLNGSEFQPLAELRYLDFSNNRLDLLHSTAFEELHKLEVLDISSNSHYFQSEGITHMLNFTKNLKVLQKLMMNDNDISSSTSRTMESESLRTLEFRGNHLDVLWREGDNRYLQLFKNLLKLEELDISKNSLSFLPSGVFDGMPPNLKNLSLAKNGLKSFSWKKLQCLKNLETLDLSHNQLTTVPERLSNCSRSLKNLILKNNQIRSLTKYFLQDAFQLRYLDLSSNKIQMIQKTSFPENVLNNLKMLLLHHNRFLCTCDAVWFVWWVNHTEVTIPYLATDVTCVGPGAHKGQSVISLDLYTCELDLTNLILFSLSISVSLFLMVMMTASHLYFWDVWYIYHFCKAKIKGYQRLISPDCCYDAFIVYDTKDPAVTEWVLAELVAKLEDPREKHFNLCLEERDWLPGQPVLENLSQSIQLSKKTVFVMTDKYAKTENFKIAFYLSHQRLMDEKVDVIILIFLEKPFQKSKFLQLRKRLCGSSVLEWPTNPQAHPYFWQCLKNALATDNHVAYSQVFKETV
In words: TLR7 inhibition reporter assay (HEK-Blue SEAP). The following applies: HEK-Blue cells overexpressing human TLR7, gardiquimod 7.5 μM, 22 hour incubation. How it is done:
(§1) TLR7/8/9 Inhibition Reporter Assays
(§2) HEK-Blue™-cells (Invivogen) overexpressing human TLR7, TLR8 or TLR9 receptors were used for screening inhibitors of these receptors using an inducible SEAP (secreted embryonic alkaline phosphatase) reporter gene under the control of the IFN-β minimal promoter fused to five NF-κB and AP-1-binding sites. Briefly, cells are seeded into Greiner 384 well plates (15000 cells per well for TLR7, 20,000 for TLR8 and 25,000 for TLR9) and then treated with test compounds in DMSO to yield a final dose response concentration range of 0.05 nM-50 μM. After a 30 minute compound pre-treatment at room temperature, the cells are then stimulated with a TLR7 ligand (gardiquimod at a final concentration of 7.5 μM), TLR8 ligand (R848 at a final concentration of 15.9 μM) or TLR9 ligand (ODN2006 at a final concentration of 5 nM) to activate NF-κB and AP-1 which induce the production of SEAP. After a 22 hour incubation at 37° C., 5% CO2, SEAP levels are determined with the addition of HEK-Blue™ Detection reagent (Invivogen), a cell culture medium that allows for detection of SEAP, according to manufacturer's specifications. The percent inhibition is determined as the % reduction in the HEK-Blue signal present in wells treated with agonist plus DMSO alone compared to wells treated with a known inhibitor.

Another assay addresses T2, human TLR8 (Homo sapiens, UniProt Q9NR97).
T2 construct: host or cells: HEK-Blue cells (HEK293-derived reporter line)
T2 sequence (Q9NR97 27-1041): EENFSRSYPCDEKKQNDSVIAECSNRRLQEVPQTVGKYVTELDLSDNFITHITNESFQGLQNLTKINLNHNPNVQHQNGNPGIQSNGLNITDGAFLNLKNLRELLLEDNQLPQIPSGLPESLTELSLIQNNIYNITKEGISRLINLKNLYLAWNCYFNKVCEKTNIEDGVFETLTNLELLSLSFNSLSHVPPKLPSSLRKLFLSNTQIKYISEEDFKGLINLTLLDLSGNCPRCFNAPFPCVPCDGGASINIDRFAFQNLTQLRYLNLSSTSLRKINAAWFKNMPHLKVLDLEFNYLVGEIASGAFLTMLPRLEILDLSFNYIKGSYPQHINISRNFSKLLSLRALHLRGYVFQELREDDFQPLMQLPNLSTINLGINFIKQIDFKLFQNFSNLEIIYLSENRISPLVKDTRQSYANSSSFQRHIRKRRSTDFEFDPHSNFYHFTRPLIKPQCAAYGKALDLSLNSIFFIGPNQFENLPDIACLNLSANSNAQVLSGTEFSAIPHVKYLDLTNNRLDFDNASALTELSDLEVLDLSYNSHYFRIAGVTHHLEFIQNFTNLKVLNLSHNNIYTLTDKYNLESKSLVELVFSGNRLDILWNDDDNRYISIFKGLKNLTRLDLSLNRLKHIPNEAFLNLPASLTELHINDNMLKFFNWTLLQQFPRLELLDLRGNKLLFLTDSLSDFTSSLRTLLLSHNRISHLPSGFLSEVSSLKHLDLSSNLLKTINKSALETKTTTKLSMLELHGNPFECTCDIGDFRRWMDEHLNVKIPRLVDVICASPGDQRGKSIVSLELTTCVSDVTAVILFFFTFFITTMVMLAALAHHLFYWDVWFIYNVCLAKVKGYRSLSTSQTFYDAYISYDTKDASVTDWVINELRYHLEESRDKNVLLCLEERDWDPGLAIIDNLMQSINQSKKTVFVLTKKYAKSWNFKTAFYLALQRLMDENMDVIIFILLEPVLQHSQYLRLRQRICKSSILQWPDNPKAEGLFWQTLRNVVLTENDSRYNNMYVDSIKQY
Nature of the assay: TLR8 inhibition reporter assay (HEK-Blue SEAP). Conditions: HEK-Blue cells overexpressing human TLR8, R848 15.9 μM, 22 hour incubation. How it is done:
as §1, §2
(Reporter assays use an easily measured gene product as a stand-in for the process of interest.)

The next assay addresses T3, human TLR9 (Homo sapiens, UniProt Q9NR96).
T3 construct: host or cells: HEK-Blue cells (HEK293-derived reporter line)
T3 sequence (Q9NR96 26-1032): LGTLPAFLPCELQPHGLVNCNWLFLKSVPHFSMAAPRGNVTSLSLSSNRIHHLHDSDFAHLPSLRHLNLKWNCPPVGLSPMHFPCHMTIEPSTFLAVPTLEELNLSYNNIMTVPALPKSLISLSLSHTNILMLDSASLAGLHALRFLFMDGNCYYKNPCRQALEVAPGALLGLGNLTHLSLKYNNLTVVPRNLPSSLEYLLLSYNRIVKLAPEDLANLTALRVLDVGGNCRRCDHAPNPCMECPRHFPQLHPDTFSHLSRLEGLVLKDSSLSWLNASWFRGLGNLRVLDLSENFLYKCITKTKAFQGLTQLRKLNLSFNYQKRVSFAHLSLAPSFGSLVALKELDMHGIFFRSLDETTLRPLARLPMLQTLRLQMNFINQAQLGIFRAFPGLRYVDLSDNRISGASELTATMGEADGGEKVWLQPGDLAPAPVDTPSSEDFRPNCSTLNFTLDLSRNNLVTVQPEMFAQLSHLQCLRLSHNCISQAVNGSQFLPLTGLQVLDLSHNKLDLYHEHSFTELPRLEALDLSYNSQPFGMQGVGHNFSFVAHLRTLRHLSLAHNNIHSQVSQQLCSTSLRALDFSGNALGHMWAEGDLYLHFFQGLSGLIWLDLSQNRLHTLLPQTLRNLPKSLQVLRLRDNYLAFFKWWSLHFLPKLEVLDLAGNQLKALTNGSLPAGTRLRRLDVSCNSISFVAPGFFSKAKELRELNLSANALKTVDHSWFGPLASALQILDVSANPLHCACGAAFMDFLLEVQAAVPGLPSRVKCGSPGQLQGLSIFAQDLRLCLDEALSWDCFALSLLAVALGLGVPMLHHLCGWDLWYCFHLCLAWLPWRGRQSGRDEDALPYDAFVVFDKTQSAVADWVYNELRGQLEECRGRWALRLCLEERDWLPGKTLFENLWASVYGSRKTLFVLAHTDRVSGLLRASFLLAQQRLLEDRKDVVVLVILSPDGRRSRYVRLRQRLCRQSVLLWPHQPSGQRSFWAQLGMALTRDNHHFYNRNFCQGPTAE
Nature of the assay: TLR9 inhibition reporter assay (HEK-Blue SEAP). Conditions: HEK-Blue cells overexpressing human TLR9, ODN2006 5 nM, 22 hour incubation. How it is done:
as §1, §2

One may read the IC50 as the midpoint of a concentration-inhibition curve. A low value points to greater potency. On to `COc1cc(-c2[nH]c3ccc(C4CCN(C(=O)CCCCCCCCCCCCCCCCC(=O)N5CCC(c6ccc7[nH]c(-c8cc(OC)c9ncnn9c8)c(C(C)C)c7c6)CC5)CC4)cc3c2C(C)C)cn2ncnc12` [Comparator Compound C1, 1,18-bis(4-(3-isopropyl-2-(8-methoxy-[1,2,4]triazolo[1,5-a]pyridin-6-yl)-1H-indol-5-yl)piperidin-1-yl)octadecane-1,18-dione, reference compound], for which the figures for the IC50 against human TLR7, on human TLR8 and on human TLR9 were greater than 3130 nM, no less than 3130 nM and greater than 50000 nM, respectively.
`COc1cc(-c2[nH]c3ccc(C4CCN(C(=O)CCCCCCCCCCCCCCCCCC(=O)N5CCC(c6ccc7[nH]c(-c8cc(OC)c9ncnn9c8)c(C(C)C)c7c6)CC5)CC4)cc3c2C(C)C)cn2ncnc12` [Comparator Compound C3, reference compound]: the IC50 at human TLR7 was greater than 3130 nM; against human TLR8 it was greater than 3130 nM; against human TLR9, greater than 50000 nM.
As for `COc1cc(-c2[nH]c3ccc(C4CCN(CCN)CC4)cc3c2C(C)C)cn2ncnc12` [Comparator Compound C4, 2-(4-(3-isopropyl-2-(8-methoxy-[1,2,4]triazolo[1,5-a]pyridin-6-yl)-1H-indol-5-yl)piperidin-1-yl)ethan-1-amine, reference compound], the figures for the IC50 on human TLR7, at human TLR8 and at human TLR9 were 0.6 nM, 2.1 nM and 1970 nM, respectively.
As to `COc1cc(-c2[nH]c3ccc(C4CCN(CCNC(C)=O)CC4)cc3c2C(C)C)cn2ncnc12` [Comparator Compound C5, N-(2-(4-(3-isopropyl-2-(8-methoxy-[1,2,4]triazolo[1,5-a]pyridin-6-yl)-1H-indol-5-yl)piperidin-1-yl)ethyl)acetamide, reference compound], the IC50 was determined as 0.95 nM against human TLR7, 1.8 nM at human TLR8 and 3570 nM against human TLR9.
On to `COc1cc(-c2[nH]c3ccc(C4CCN(CCNC(=O)CCCCCCCCCCCC(=O)NCCN5CCC(c6ccc7[nH]c(-c8cc(OC)c9ncnn9c8)c(C(C)C)c7c6)CC5)CC4)cc3c2C(C)C)cn2ncnc12` [Example 1, N1,N13-bis(2-(4-(3-isopropyl-2-(8-methoxy-[1,2,4]triazolo[1,5-a]pyridin-6-yl)-1H-indol-5-yl)piperidin-1-yl)ethyl)tridecanediamide], for which the IC50 on human TLR7 stood at 0.92 nM; at human TLR8 it was 1.4 nM; against human TLR9 it was 121 nM.
For the molecule `COc1cc(-c2[nH]c3ccc(C4CCN(CCNC(=O)CCCCCCCCCCCCC(=O)NCCN5CCC(c6ccc7[nH]c(-c8cc(OC)c9ncnn9c8)c(C(C)C)c7c6)CC5)CC4)cc3c2C(C)C)cn2ncnc12` [Example 2, N1,N14-bis(2-(4-(3-isopropyl-2-(8-methoxy-[1,2,4]triazolo[1,5-a]pyridin-6-yl)-1H-indol-5-yl)piperidin-1-yl)ethyl)tetradecanediamide], the IC50 was 1.9 nM against human TLR7, 1.6 nM against human TLR8 and 149 nM at human TLR9.
For `COc1cc(-c2[nH]c3ccc(C4CCN(CCNC(=O)CCCCCCCCCCC(=O)NCCN5CCC(c6ccc7[nH]c(-c8cc(OC)c9ncnn9c8)c(C(C)C)c7c6)CC5)CC4)cc3c2C(C)C)cn2ncnc12` [Example 3, N1,N12-bis(2-(4-(3-isopropyl-2-(8-methoxy-[1,2,4]triazolo[1,5-a]pyridin-6-yl)-1H-indol-5-yl)piperidin-1-yl)ethyl)dodecanediamide], the values for the IC50 at human TLR7, on human TLR8 and against human TLR9 were 0.31 nM, 0.32 nM and 99 nM, respectively.
The like results for `COc1cc(-c2[nH]c3ccc(C4CCN(CCNC(=O)CCCCCCCCCC(=O)NCCN5CCC(c6ccc7[nH]c(-c8cc(OC)c9ncnn9c8)c(C(C)C)c7c6)CC5)CC4)cc3c2C(C)C)cn2ncnc12` [Example 4, N1,N11-bis(2-(4-(3-isopropyl-2-(8-methoxy-[1,2,4]triazolo[1,5-a]pyridin-6-yl)-1H-indol-5-yl)piperidin-1-yl)ethyl)undecanediamide] were, in that order, 0.25 nM, 0.22 nM and 94 nM.
On the same counts, the results for `COc1cc(-c2[nH]c3ccc(C4CCN(CCNC(=O)CCCCCCCC(=O)NCCN5CCC(c6ccc7[nH]c(-c8cc(OC)c9ncnn9c8)c(C(C)C)c7c6)CC5)CC4)cc3c2C(C)C)cn2ncnc12` [Example 5, N1,N9-bis(2-(4-(3-isopropyl-2-(8-methoxy-[1,2,4]triazolo[1,5-a]pyridin-6-yl)-1H-indol-5-yl)piperidin-1-yl)ethyl)nonanediamide] are 0.15 nM, 0.18 nM and 140 nM.

These data come from US11998537B2, “Substituted indole dimer compounds” (BRISTOL-MYERS SQUIBB COMPANY, priority 2018, dated 2024).
